# Test results published in publication PMC9508125, “The evolutionary advantage of an aromatic clamp in plant family 3 glycoside exo-hydrolases” (Nature Communications, 2022).
# B1: HvExoI W434Y mutant (Hordeum vulgare subsp. vulgare; W459Y) (protein)
# chain: DYVLYKDATKPVEDRVADLLGRMTLAEKIGQMTQIERLVATPDVLRDNFIGSLLSGGGSVPRKGATAKEWQDMVDGFQKACMSTRLGIPMIYGIDAVHGQNNVYGATIFPHNVGLGATRDPYLVKRIGEATALEVRATGIQYAFAPCIAVCRDPRWGRCYESYSEDRRIVQSMTELIPGLQGDVPKDFTSGMPFVAGKNKVAACAKHFVGDGGTVDGINENNTIINREGLMNIHMPAYKNAMDKGVSTVMISYSSWNGVKMHANQDLVTGYLKDTLKFKGFVISDWEGIDRITTPAGSDYSYSVKASILAGLDMIMVPNNYQQFISILTGHVNGGVIPMSRIDDAVTRILRVKFTMGLFENPYADPAMAEQLGKQEHRDLAREAARKSLVLLKNGKTSTDAPLLPLPKKAPKILVAGSHADNLGYQCGGWTIEYQGDTGRTTVGTTILEAVKAAVDPSTVVVFAENPDAEFVKSGGFSYAIVAVGEHPYTETKGDNLNLTIPEPGLSTVQAVCGGVRCATVLISGRPVVVQPLLAASDALVAAWLPGSEGQGVTDALFGDFGFTGRLPRTWFKSVDQLPMNVGDAHYDPLFRLGYGLTTNATKKY
# B2: HvExoI W286F/W434A mutant (Hordeum vulgare subsp. vulgare; W311F/W459A) (protein)
# chain: DYVLYKDATKPVEDRVADLLGRMTLAEKIGQMTQIERLVATPDVLRDNFIGSLLSGGGSVPRKGATAKEWQDMVDGFQKACMSTRLGIPMIYGIDAVHGQNNVYGATIFPHNVGLGATRDPYLVKRIGEATALEVRATGIQYAFAPCIAVCRDPRWGRCYESYSEDRRIVQSMTELIPGLQGDVPKDFTSGMPFVAGKNKVAACAKHFVGDGGTVDGINENNTIINREGLMNIHMPAYKNAMDKGVSTVMISYSSWNGVKMHANQDLVTGYLKDTLKFKGFVISDFEGIDRITTPAGSDYSYSVKASILAGLDMIMVPNNYQQFISILTGHVNGGVIPMSRIDDAVTRILRVKFTMGLFENPYADPAMAEQLGKQEHRDLAREAARKSLVLLKNGKTSTDAPLLPLPKKAPKILVAGSHADNLGYQCGGWTIEAQGDTGRTTVGTTILEAVKAAVDPSTVVVFAENPDAEFVKSGGFSYAIVAVGEHPYTETKGDNLNLTIPEPGLSTVQAVCGGVRCATVLISGRPVVVQPLLAASDALVAAWLPGSEGQGVTDALFGDFGFTGRLPRTWFKSVDQLPMNVGDAHYDPLFRLGYGLTTNATKKY
# B3: HvExoI W286F/W434F mutant (Hordeum vulgare subsp. vulgare; W311F/W459F) (protein)
# chain: DYVLYKDATKPVEDRVADLLGRMTLAEKIGQMTQIERLVATPDVLRDNFIGSLLSGGGSVPRKGATAKEWQDMVDGFQKACMSTRLGIPMIYGIDAVHGQNNVYGATIFPHNVGLGATRDPYLVKRIGEATALEVRATGIQYAFAPCIAVCRDPRWGRCYESYSEDRRIVQSMTELIPGLQGDVPKDFTSGMPFVAGKNKVAACAKHFVGDGGTVDGINENNTIINREGLMNIHMPAYKNAMDKGVSTVMISYSSWNGVKMHANQDLVTGYLKDTLKFKGFVISDFEGIDRITTPAGSDYSYSVKASILAGLDMIMVPNNYQQFISILTGHVNGGVIPMSRIDDAVTRILRVKFTMGLFENPYADPAMAEQLGKQEHRDLAREAARKSLVLLKNGKTSTDAPLLPLPKKAPKILVAGSHADNLGYQCGGWTIEFQGDTGRTTVGTTILEAVKAAVDPSTVVVFAENPDAEFVKSGGFSYAIVAVGEHPYTETKGDNLNLTIPEPGLSTVQAVCGGVRCATVLISGRPVVVQPLLAASDALVAAWLPGSEGQGVTDALFGDFGFTGRLPRTWFKSVDQLPMNVGDAHYDPLFRLGYGLTTNATKKY
# Tests used:
# Native HvExoI = Native HvExoI (Hordeum vulgare, UniProt Q9XEI3); assay: Inhibition by thio-analogues using the 4NP-Glc substrate; type: biochemical; settings: for ΔG: calculated according to ∆G = -RT ln [1/Ki]
# Chain of Native HvExoI (Q9XEI3 entry or part of it): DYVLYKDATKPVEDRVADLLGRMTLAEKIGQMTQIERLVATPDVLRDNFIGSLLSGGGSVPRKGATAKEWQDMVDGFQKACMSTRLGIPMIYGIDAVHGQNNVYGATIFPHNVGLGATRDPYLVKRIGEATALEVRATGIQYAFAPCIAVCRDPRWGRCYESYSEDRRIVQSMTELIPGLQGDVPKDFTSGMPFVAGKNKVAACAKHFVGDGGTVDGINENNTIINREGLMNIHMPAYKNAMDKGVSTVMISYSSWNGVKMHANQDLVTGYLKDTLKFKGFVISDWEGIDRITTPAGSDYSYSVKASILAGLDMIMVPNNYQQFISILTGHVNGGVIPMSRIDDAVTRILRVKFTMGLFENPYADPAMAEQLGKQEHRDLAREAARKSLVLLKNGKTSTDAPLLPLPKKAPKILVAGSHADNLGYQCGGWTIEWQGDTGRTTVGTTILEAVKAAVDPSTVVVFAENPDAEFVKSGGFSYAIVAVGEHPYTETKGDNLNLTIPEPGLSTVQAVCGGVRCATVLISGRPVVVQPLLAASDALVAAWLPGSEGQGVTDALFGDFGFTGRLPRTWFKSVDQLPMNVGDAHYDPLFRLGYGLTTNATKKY
# Protocol: (§1) Dependency of activities of WT and mutant HvExoI on pH (McIlvaine buffers in the pH range of 3.5–8.5 at 30 °C) and temperature (100 mM sodium acetate buffer, pH 5.25, temperature range 0–80 °C, 15 min incubations) were determined using 0.2% (w/v) 4NP-Glc[21],[59]. Relative rates of hydrolysis of β-linked poly-, oligosaccharides, and aryl-glucosides were determined using near-homogenous HvExoI at 50 pmoles. […] Kinetic parameters were calculated from the analyses of Michaelis-Menten plots with Grafit 7.0.3[62] and processed by a proportional weighted fit, using nonlinear regression. The relative rates of hydrolysis, kinetic, and inhibition data were rounded to one or two decimal points (Supplementary Tables 2–4).
# WT HvExoI = WT HvExoI (Hordeum vulgare, UniProt Q9XEI3); assay: as above; type: biochemical; settings: for ΔG: calculated according to ∆G = -RT ln [1/Ki]; for type of inhibition: WT HvExoI
# Chain of WT HvExoI (Q9XEI3 entry or part of it): as above
# Protocol: as §1
# Recombinant HvExoI W286Y = type: biochemical, Hordeum vulgare; settings: calculated according to ∆G = -RT ln [1/Ki]
# Protocol: as §1
# Recombinant HvExoI W434H = assay: Inhibition by thio-analogues using the 4NP-Glc substrate; type: biochemical, Hordeum vulgare; settings: calculated according to ∆G = -RT ln [1/Ki]
# Protocol: as §1
# Recombinant HvExoI W286F = assay: as above; type: biochemical, Hordeum vulgare; settings: calculated according to ∆G = -RT ln [1/Ki]
# Protocol: as §1
# Recombinant HvExoI W434A = assay: as above; type: biochemical, Hordeum vulgare; settings: calculated according to ∆G = -RT ln [1/Ki]
# Protocol: as §1
# Recombinant HvExoI W434Y = assay: as above; type: biochemical, Hordeum vulgare; settings: calculated according to ∆G = -RT ln [1/Ki]
# Protocol: as §1
# Recombinant HvExoI W434F = assay: as above; type: biochemical, Hordeum vulgare; settings: calculated according to ∆G = -RT ln [1/Ki]
# Protocol: as §1
# [1] = substrate: O=[N+]([O-])c1ccc(O[C@@H]2O[C@H](CO)[C@@H](O)[C@H](O)[C@H]2O)cc1; assay: Steady-state apparent kinetic constants with substrates; type: biochemical, Hordeum vulgare; settings: substance is the substrate, pH 5.25, 30.0 °C
# [2] = substrate: OC[C@H]1O[C@@H](O[C@H]2[C@H](O)[C@@H](CO)OC(O)[C@@H]2O)[C@H](O)[C@@H](O)[C@@H]1O; assay: as above; type: biochemical, Hordeum vulgare; settings: substance is the substrate, pH 5.25, 30.0 °C
molecule,measurement,setting,value
"CO[C@@H]1O[C@H](CO)[C@@H](S[C@@H]2O[C@H](CO)[C@@H](O)[C@H](O)[C@H]2O)[C@H](O)[C@H]1O [G4SG-OMe, methyl 4-thio-β-cellobioside]",Ki,"Native HvExoI; apparent inhibition constant, 4NP-Glc substrate",1000 µM
same,ΔG,Native HvExoI,-4.16 kcal/mol
same,Ki,"WT HvExoI; Recombinant WT, apparent inhibition constant, 4NP-Glc substrate",1000 µM
same,ΔG,WT HvExoI; Recombinant WT,-4.16 kcal/mol
same,type of inhibition,WT HvExoI,competitive inhibition
same,ΔG,Recombinant HvExoI W286Y,-3.68 kcal/mol
same,ΔG,Recombinant HvExoI W434H,-3.85 kcal/mol
same,ΔG,Recombinant HvExoI W286F,-3.75 kcal/mol
same,ΔG,Recombinant HvExoI W434A,-3.68 kcal/mol
same,ΔG,Recombinant HvExoI W434Y,-3.3 kcal/mol
same,ΔG,Recombinant HvExoI W434F,-3.42 kcal/mol
4-nitrophenyl 3-thio-laminaribioside [4NP-G3SG],ΔG,Native HvExoI,-4.37 kcal/mol
same,ΔG,WT HvExoI; Recombinant WT,-4.37 kcal/mol
same,type of inhibition,WT HvExoI,competitive inhibition
same,ΔG,Recombinant HvExoI W286Y,-3.75 kcal/mol
same,ΔG,Recombinant HvExoI W434H,-3.61 kcal/mol
same,ΔG,Recombinant HvExoI W286F,-4.37 kcal/mol
same,ΔG,Recombinant HvExoI W434A,-3.92 kcal/mol
same,ΔG,Recombinant HvExoI W434Y,-3.75 kcal/mol
same,ΔG,Recombinant HvExoI W434F,-4.11 kcal/mol
B1,Km,[1]; other: W434Y,300 ± 30 µM
same,kcat,[1]; other: W434Y,1.2 ± 0.1 s⁻¹
same,kcat/Km,[1]; other: W434Y,3500 ± 400 M⁻¹ s⁻¹
same,Km,[2]; other: W434Y,600 ± 100 µM
same,kcat,[2]; other: W434Y,2.0 ± 0.1 s⁻¹
same,kcat/Km,[2]; other: W434Y,3300 ± 300 M⁻¹ s⁻¹
B2,Km,[1]; other: W286F/W434A,700 ± 40 µM
same,kcat,[1]; other: W286F/W434A,1.9 ± 0.1 s⁻¹
same,kcat/Km,[1]; other: W286F/W434A,2500 ± 200 M⁻¹ s⁻¹
same,Km,[2]; other: W286F/W434A,700 ± 200 µM
same,kcat,[2]; other: W286F/W434A,0.2 ± 0.02 s⁻¹
same,kcat/Km,[2]; other: W286F/W434A,200 ± 30 M⁻¹ s⁻¹
B3,Km,[1]; other: W286F/W434F,600 ± 100 µM
same,kcat,[1]; other: W286F/W434F,0.7 ± 0.02 s⁻¹
same,kcat/Km,[1]; other: W286F/W434F,1200 ± 200 M⁻¹ s⁻¹
same,Km,[2]; other: W286F/W434F,200 ± 20 µM
same,kcat,[2]; other: W286F/W434F,0.5 ± 0.04 s⁻¹
same,kcat/Km,[2]; other: W286F/W434F,3000 ± 600 M⁻¹ s⁻¹
